{
  "source": "patent US20060194819A1",
  "about": "“Activation specific inhibitors of nf-kb and method of treating inflammatory processes in cardio-vascular diseases” (PROCORDE GMBH, priority 2003, published 2006)",
  "key": {"IKK-complex": {"biological_target": "T1, IKK-complex (Homo sapiens, UniProt O14920+O15111+Q9Y6K9)", "T1 construct": "IKK-complex was immunoprecipitated with anti-NEMO-antibody; endogenous in cells; host or cells: HeLa", "T1 sequence (O14920 whole entry)": "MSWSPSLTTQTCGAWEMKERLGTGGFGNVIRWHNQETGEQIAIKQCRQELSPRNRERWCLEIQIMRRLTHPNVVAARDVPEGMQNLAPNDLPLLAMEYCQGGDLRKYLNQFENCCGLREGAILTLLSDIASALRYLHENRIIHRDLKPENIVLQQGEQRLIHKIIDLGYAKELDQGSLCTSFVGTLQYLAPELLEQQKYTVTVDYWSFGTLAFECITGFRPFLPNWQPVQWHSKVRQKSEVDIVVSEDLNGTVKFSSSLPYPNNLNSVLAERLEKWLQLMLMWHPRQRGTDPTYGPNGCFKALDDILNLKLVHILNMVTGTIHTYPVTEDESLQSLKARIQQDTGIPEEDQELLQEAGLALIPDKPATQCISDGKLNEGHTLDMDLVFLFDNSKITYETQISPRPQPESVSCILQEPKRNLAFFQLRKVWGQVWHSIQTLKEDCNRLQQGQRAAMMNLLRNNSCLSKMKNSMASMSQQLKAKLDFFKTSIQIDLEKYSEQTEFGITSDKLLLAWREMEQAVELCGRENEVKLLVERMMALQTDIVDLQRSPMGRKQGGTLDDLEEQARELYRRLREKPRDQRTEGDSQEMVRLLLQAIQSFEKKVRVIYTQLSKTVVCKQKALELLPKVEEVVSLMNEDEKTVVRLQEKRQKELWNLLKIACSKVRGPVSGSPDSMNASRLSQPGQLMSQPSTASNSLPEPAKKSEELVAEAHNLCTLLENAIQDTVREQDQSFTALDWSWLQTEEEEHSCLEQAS", "T1 sequence (O15111 whole entry)": "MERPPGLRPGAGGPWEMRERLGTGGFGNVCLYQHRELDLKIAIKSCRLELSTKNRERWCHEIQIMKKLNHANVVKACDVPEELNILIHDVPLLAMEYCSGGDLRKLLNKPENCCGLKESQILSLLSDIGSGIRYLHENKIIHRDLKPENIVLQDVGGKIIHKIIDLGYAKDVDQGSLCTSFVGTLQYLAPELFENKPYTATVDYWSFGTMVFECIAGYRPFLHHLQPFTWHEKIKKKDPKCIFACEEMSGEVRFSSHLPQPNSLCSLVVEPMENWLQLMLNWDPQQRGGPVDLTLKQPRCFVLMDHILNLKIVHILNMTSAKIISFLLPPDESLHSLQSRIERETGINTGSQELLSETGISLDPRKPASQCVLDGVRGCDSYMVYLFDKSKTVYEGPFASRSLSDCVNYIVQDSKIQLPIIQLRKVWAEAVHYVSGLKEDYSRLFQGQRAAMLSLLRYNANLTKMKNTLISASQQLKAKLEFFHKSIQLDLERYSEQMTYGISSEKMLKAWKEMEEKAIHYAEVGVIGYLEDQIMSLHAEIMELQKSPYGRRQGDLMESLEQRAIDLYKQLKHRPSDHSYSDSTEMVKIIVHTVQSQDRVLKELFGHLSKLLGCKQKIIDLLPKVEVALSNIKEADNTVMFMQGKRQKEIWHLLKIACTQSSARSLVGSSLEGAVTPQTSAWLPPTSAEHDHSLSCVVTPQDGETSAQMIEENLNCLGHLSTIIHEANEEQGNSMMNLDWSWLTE", "T1 sequence (Q9Y6K9 whole entry)": "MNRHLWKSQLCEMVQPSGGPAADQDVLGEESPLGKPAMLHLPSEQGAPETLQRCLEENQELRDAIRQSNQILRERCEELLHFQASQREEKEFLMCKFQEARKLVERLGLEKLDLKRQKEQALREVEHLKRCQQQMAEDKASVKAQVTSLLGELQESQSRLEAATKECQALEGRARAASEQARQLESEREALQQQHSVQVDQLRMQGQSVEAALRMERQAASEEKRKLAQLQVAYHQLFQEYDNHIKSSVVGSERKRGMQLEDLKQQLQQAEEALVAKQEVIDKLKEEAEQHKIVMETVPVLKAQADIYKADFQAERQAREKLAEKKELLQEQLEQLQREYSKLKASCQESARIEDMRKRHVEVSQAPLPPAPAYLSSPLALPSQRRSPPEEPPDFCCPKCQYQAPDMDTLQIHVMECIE", "experiment": "In vitro/cell free kinase assay: IKK-complex immunoprecipitated from TNF alpha stimulated HeLa cells, drugs added afterwards, alpha screen", "assay_type": "biochemical", "method": "In vitro/cell free kinase assay protocol: HeLa cells were maintained in Dulbecco's modified Eagle's medium (Invitrogen) supplemented with 10% fetal bovine serum, 2 mM L-glutamine, penicillin (50 units/ml) and streptomycin (50 μg/ml). 24 h before treatment with TNF alpha HeLa cells were plated at a density of 1×10^7 per well in 175-mm cell culture dishes to 90% confluences.\nThe cells were stimulated with 20 ng/ml TNF alpha (Roche) without drugs. After 7 min the cells were washed twice with ice cold PBS followed by scraping and transferring into a 1.5 ml micro centrifuge tube. […] 6.6 μl of detection-buffer (20 mM Hepes pH 7.5, 100 mM NaCl, 1% Tween, 0.1 mM BSA, 50 μg/ml Protein A-Acceptor beads, 250 μg/ml Streptavidin-Donor beads (both Perkin-Elmer), 4 nM anti-phospho-IKBα-antibody (Santa Cruz Biotechnology) was dispensed to each well. After incubation for 1.5 h the plate was measured by alpha screen reader (Perkin Elmer)."}, "IKKα/β binding to NEMO": {"biological_target": "T2, IKKα/β binding to NEMO (Homo sapiens, UniProt O14920+O15111+Q9Y6K9)", "T2 construct": "endogenous in cells; host or cells: HeLa (immunoprecipitate with anti-NEMO antibody on Protein A-Sepharose)", "T2 sequence (Q9Y6K9 whole entry)": "as above", "T2 sequence (O15111 whole entry)": "as the sequence (O15111 whole entry) above", "T2 sequence (O14920 whole entry)": "as the sequence (O14920 whole entry) above", "experiment": "Degradation of the immunoprecipitated IKK-complex after drug treatment in vitro, Western blot", "assay_type": "biochemical", "conditions": "precipitated IKK-complex incubated 1 h with compound", "method": "After immuno-precipitation with anti-NEMO antibody (Santa Cruz) as described earlier, the precipitated and washed IKK-complex was incubated with different concentrations of IKK inhibitors in 20 mM HEPES, pH 8.0, 10 mM MgCl2, 100 μM Na3VO4, 20 mM-glycerophosphate, 50 mM NaCl, 2 mM dithiothreitol, 0.5 μM phenylmethylsulfonyl fluoride, antipain, aprotinin, leupeptin 0.75 μg/ml each (Sigma). After 1 h treatment the probe was centrifuged at 16000 g for 1 min the supernatant was removed totally and the protein A pellet was resuspended in 1×Laemmli-buffer buffer (2% SDS, 2% 2-Mercaptoethanol, 0.01% Bromophenol blue, 8% Glycerine), heated by 60° C. for 10 min and loaded to a 4-20% polyacrylamid gels (BioRad). After electrophoresis the proteins were transferred to a nitrocellulose membrane using the wet blotting technique. First the membrane was blocked with Roti-Block (Roth) and afterwards incubated with monoclonal antibodies against IKKα (Santa Cruz Biotechnology, used at 1:200 dilution). This incubation was followed by the appropriate horseradish peroxidase-conjugated secondary antibody (Dianova) at 1:10000 dilution. Antibody binding was visualized on x-ray film using the Western blot Chemiluminescent Reagent Detection Kit (Santa Cruz). The x-ray film was scanned and the results were analysed by densitometry by the software AIDA."}, "[1]": {"experiment": "Serum levels after single dose IV application in rats, mass spectroscopy", "assay_type": "in vivo", "conditions": "27.5 and 55 μg IV, 2 and 20 minutes", "method": "COM 56 was diluted in saline-buffer to 100 μM and 200 μM in a volume of 200 μL. The probe was administered intravenously in rats. After 2 min and 20 min a blood probe was taken from the right carotid artery. The blood probes were centrifuged by 2500 g for 3 min and the supernatant, the serum component, were analysed by mass spectroscopy."}},
  "data": [
    {"smiles": "CCOC(=O)C1=C(C)N=c2s/c(=C/c3ccc(-c4cccc(C(=O)O)c4)o3)c(=O)n2C1c1ccc(Cl)cc1", "note": "(centres unmarked) [COM 56, 2-[5-(3-Carboxyphenyl)-furan-2-ylmethylene]-5-(4-chlorophenyl)-7-methyl-3-oxo-2,3-dihydro-5H-thiazolo[3,2-a]pyrimidine-6-carboxylic acid ethyl ester]", "values": [
      {"measurement": "potency in the inhibition of IKK activity compared to COM 73", "setting": "IKK-complex; cell-free assay", "result": "significantly higher"},
      {"measurement": "inhibition of IKK activity in cell-free assay", "setting": "IKK-complex; increasing concentrations on isolated IKK complex", "result": "dose-dependently inhibited"},
      {"measurement": "disruption of the IKK complex (NEMO binding to IKK-alpha/beta) in vitro", "setting": "IKKα/β binding to NEMO", "result": "dose-dependently disrupted"},
      {"measurement": "serum levels after single IV application", "setting": "[1]", "result": "considerable serum levels"},
      {"measurement": "serum levels after single IV application", "setting": "[1]; listed as compound 56", "result": "positive serum probes"}
    ]}
  ]
}
